Reference: patent publication US20220338471A1, “HONEY BEE-SAFE ACARICIDAL COMPOUNDS” (Kansas State University Research Foundation, priority 2019, published 2022)
Where “and” joins values, the source holds several entries; their conditions need not be identical. Equal entries are not always repeated. Where two headings read alike, the source gives them in different places. Square brackets hold non-standard residues; d marks the D form. Ends that are not written are not given here. Peptide text beside a SMILES is read from it. Oic = O=C(O)[C@@H]1C[C@@H]2CCCC[C@@H]2N1; Phe(4-Cl) = N[C@@H](Cc1ccc(Cl)cc1)C(=O)O; Phe(4-F) = N[C@@H](Cc1ccc(F)cc1)C(=O)O; Hyp = O=C(O)[C@@H]1C[C@@H](O)CN1; β3hF = N[C@H](CC(=O)O)Cc1ccccc1; β3hL = CC(C)C[C@H](N)CC(=O)O; β3hP = O=C(O)C[C@@H]1CCCN1; Aib = CC(C)(N)C(=O)O

Legend:
[1] = target: T1, varroa mite proctolin receptor (VdProctR) (Varroa destructor, UniProt A0A7T1TE40); assay: Receptor activity assay: luminescence in cells transiently transfected with varroa mite proctolin receptor; type: cell-based; conditions: for EC50: varroa mite proctolin receptor; for Activity at high concentrations compared with proctolin: at 1 μM and 10 μM; for Factor by which potency exceeds that of the corresponding analog with only a single replacement at Y2: 2338 vs 2333, 2337 vs 2329
T1 sequence (A0A7T1TE40 1-530): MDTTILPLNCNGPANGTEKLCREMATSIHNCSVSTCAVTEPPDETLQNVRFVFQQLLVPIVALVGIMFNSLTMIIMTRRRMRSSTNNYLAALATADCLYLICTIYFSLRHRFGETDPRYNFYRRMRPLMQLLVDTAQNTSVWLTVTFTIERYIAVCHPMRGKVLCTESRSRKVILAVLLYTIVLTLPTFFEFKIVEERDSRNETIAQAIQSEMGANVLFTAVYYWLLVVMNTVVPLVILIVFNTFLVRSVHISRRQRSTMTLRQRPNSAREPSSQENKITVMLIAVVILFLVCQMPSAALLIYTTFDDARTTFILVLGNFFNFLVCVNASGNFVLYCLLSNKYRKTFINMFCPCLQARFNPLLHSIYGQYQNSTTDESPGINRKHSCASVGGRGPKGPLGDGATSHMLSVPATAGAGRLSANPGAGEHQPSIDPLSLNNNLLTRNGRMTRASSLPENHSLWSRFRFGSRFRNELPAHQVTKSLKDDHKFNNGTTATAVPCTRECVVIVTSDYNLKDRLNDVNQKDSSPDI
Procedure: Approximately thirty hours after transfection, the cells were collected and preincubated with coelenterazine h for the functional assay. The ligands in serial dilutions were loaded into 96-well opaque plates. Cells treated with coelenterazine h were injected into each well on an Orion microplate luminometer (Berthold) luminescent plate reader. The luminescence was measured for 20 seconds immediately after the cell injections. Data analyses were performed to determine the accumulated luminescence value for 20 seconds after extraction of blank-well luminescence. A dose-response curve was generated and the EC50 (50% effective concentration) was calculated in Origin 7 (OriginLab).

[2] = tested on: Varroa mites; assay: Injection of compound into the body cavity of varroa mites (excretion); type: in vivo, Varroa destructor; conditions: ~5 nL of 200 μM
From the text: Micro-glass electrodes were used for the injections using the pressure injection system (Dagan PMI-200). All injected animals were within 5 hr after the collections as described above.

[3] = EC50 (nM), second set of peptidomimetics
[4] = second set, EC50 relative to proctolin (14.19 nM)
[5] = first set of experiments, EC50 relative to proctolin (0.22 nM)
[6] = first set of experiments, read-out: EC50
[7] = EC50 (nM), first set of experiments

Molecule	Fold change [1, 5]	EC50 [1, 6]	EC50 [1, 7]	also measured
CC(=O)N[C@@H](CCCNC(=N)N)C(=O)N[C@@H](Cc1ccc(F)cc1)C(=O)N[C@@H](CC(C)C)C(=O)N1C[C@H](O)C[C@H]1C(=O)N[C@H](C(=O)O)[C@@H](C)O [Ac-2441, Ac-R[Phe(4-F)]L[HyP]T] (Ac-R[Phe(4-F)]L[Hyp]T-OH)	–	–	–	EC50 [1, 3]: 471 nM; Fold change [1, 4]: 33.20
CC(=O)N[C@@H](CCCNC(=N)N)C(=O)N[C@@H](Cc1ccc(Cl)cc1)C(=O)N[C@@H](CC(C)C)C(=O)N1C[C@H](O)C[C@H]1C(=O)N[C@H](C(=O)O)[C@@H](C)O [Ac-2443, Ac-R[Phe(4-Cl)]L[HyP]T] (Ac-R[Phe(4-Cl)]L[Hyp]T-OH)	–	–	–	EC50 [1, 3]: 108 nM; Fold change [1, 4]: 7.64
CC(C)C[C@H](NC(=O)[C@H](Cc1ccc(O)cc1)NC(=O)[C@@H](N)CCCNC(=N)N)C(=O)N1CCC[C@H]1C(=O)N[C@@H](C(=O)O)[C@H](C)O [Analog 2326, RYLP[dT]] (H-RYLP[dT]-OH; N-terminus assumed)	13600.00	2990 nM	–	Agonist activity / potency on the Varroa mite proctolin receptor, in words ([1]; in words): inactive agonist
CC(C)C[C@H](NC(=O)[C@H](Cc1ccc(O)cc1)NC(=O)[C@@H](N)CCCNC(=N)N)C(=O)N1CCC[C@@H]1C(=O)N[C@H](C(=O)O)[C@@H](C)O [Analog 2327, RYL[dP]T] (H-RYL[dP]T-OH)	2496.82	549 nM	–	–
CC(C)C[C@@H](NC(=O)[C@H](Cc1ccc(O)cc1)NC(=O)[C@@H](N)CCCNC(=N)N)C(=O)N1CCC[C@H]1C(=O)N[C@H](C(=O)O)[C@@H](C)O [Analog 2328, RY[dL]PT] (H-RY[dL]PT-OH)	413.36	90.9 nM	–	–
CC(C)C[C@H](NC(=O)[C@@H](Cc1ccc(O)cc1)NC(=O)[C@@H](N)CCCNC(=N)N)C(=O)N1CCC[C@H]1C(=O)N[C@H](C(=O)O)[C@@H](C)O [Analog 2329, R[dY]LPT] (H-R[dY]LPT-OH)	672.27	148 nM	–	–
CC(C)C[C@H](NC(=O)[C@H](Cc1ccc(O)cc1)NC(=O)[C@H](N)CCCNC(=N)N)C(=O)N1CCC[C@H]1C(=O)N[C@H](C(=O)O)[C@@H](C)O [Analog 2330, [dR]YLPT] (H-[dR]YLPT-OH; N-terminus assumed)	25.55	5.6 nM and 5.62 nM	–	Activity at high concentrations compared with proctolin [1]: higher than that of proctolin
CC(C)C[C@H](NC(=O)[C@H](Cc1ccc(O)cc1)NC(=O)[C@@H](N)CCCNC(=N)N)C(=O)N1CCC[C@H]1CC(=O)N[C@H](C(=O)O)[C@@H](C)O [Analog 2331, RYL[β3P]T] (H-RYL[β3hP]T-OH; N-terminus assumed)	20.00	4.4 nM	–	Activity at high concentrations compared with proctolin [1]: higher than that of proctolin
CC(C)C[C@@H](CC(=O)N1CCC[C@H]1C(=O)N[C@H](C(=O)O)[C@@H](C)O)NC(=O)[C@H](Cc1ccc(O)cc1)NC(=O)[C@@H](N)CCCNC(=N)N [Analog 2332, RY[β3L]PT] (H-RY[β3hL]PT-OH)	927.27	204 nM	–	–
CC(C)C[C@H](NC(=O)C[C@H](Cc1ccccc1)NC(=O)[C@@H](N)CCCNC(=N)N)C(=O)N1CCC[C@H]1C(=O)N[C@H](C(=O)O)[C@@H](C)O [Analog 2333, R[β3F]LPT] (H-R[β3hF]LPT-OH)	991.82	218 nM	–	–
CC(C)C[C@H](NC(=O)[C@H](Cc1ccc(O)cc1)NC(=O)[C@@H](N)CCCNC(=N)N)C(=O)N1C[C@H](O)C[C@H]1C(=O)N[C@H](C(=O)O)[C@@H](C)O [Analog 2334, RYL[HyP]T] (H-RYL[Hyp]T-OH; N-terminus assumed)	2.5 and 2.45	0.54 nM	–	Individuals with immediate excretion of a drop of fecal material through the anus [2]: 3/4; Activity at high concentrations compared with proctolin [1]: higher than that of proctolin; Agonist activity / potency on the Varroa mite proctolin receptor, in words ([1]; in words): strong agonists
CC(C)C[C@H](NC(=O)[C@H](Cc1ccc(O)cc1)NC(=O)[C@@H](N)CCCNC(=N)N)C(=O)NC(C)(C)C(=O)N[C@H](C(=O)O)[C@@H](C)O [Analog 2335, RYL[Aib]T] (H-RYL[Aib]T-OH)	10.09	2.2 nM and 2.22 nM	–	–
CC(C)C[C@H](NC(=O)[C@@H](Cc1ccc(O)cc1)NC(=O)[C@@H](N)CCCNC(=N)N)C(=O)N1C[C@H](O)C[C@H]1C(=O)N[C@H](C(=O)O)[C@@H](C)O [Analog 2337, R[dY]L[HyP]T] (H-R[dY]L[Hyp]T-OH; N-terminus assumed)	163.00	–	36 nM and 35.9 nM	Factor by which potency exceeds that of the corresponding analog with only a single replacement at Y2 [1]: 4; Efficacy (maximal response) ([1]; in words): full efficacy
CC(C)C[C@H](NC(=O)C[C@H](Cc1ccccc1)NC(=O)[C@@H](N)CCCNC(=N)N)C(=O)N1C[C@H](O)C[C@H]1C(=O)N[C@H](C(=O)O)[C@@H](C)O [Analog 2338, R[β3F]L[HyP]T] (H-R[β3hF]L[Hyp]T-OH)	119.59	–	26 nM and 26.3 nM	Factor by which potency exceeds that of the corresponding analog with only a single replacement at Y2 [1]: 8; Efficacy (maximal response) ([1]; in words): full efficacy
CC(C)C[C@H](NC(=O)[C@@H](Cc1ccc(O)cc1)NC(=O)[C@@H](N)CCCNC(=N)N)C(=O)N1[C@H](C(=O)N[C@H](C(=O)O)[C@@H](C)O)C[C@@H]2CCCC[C@@H]21 [Analog 2340, R[dY]L[Oic]T] (H-R[dY]L[Oic]T-OH; N-terminus assumed)	1262.27	–	278 nM	Potency compared with 2337 and 2338 ([1]; in words): less potent than 2337 and 2338 by approximately an order of magnitude
CC(C)C[C@H](NC(=O)[C@H](Cc1ccc(F)cc1)NC(=O)[C@@H](N)CCCNC(=N)N)C(=O)N1CCC[C@H]1C(=O)N[C@H](C(=O)O)[C@@H](C)O [Analog 2438, R[Phe(4-F)]LPT] (H-R[Phe(4-F)]LPT-OH)	–	–	–	EC50 [1, 3]: 7.55 nM; Fold change [1, 4]: 0.53
CC(C)C[C@H](NC(=O)[C@H](Cc1ccc(Cl)cc1)NC(=O)[C@@H](N)CCCNC(=N)N)C(=O)N1CCC[C@H]1C(=O)N[C@H](C(=O)O)[C@@H](C)O [Analog 2440, R[Phe(4-Cl)]LPT] (H-R[Phe(4-Cl)]LPT-OH)	–	–	–	EC50 [1, 3]: 7.03 nM; Fold change [1, 4]: 0.50
CC(C)C[C@H](NC(=O)[C@H](Cc1ccc(F)cc1)NC(=O)[C@@H](N)CCCNC(=N)N)C(=O)N1C[C@H](O)C[C@H]1C(=O)N[C@H](C(=O)O)[C@@H](C)O [Analog 2441, R[Phe(4-F)]L[HyP]T] (H-R[Phe(4-F)]L[Hyp]T-OH; N-terminus and C-terminus assumed)	–	–	–	EC50 [1, 3]: 9.93 nM; Activity compared with proctolin, in words ([1]; second set, Y2 phenylalanine variants): higher activity than proctolin; Fold change [1, 4]: 0.70
GRYLPT [Analog G1, GRYLPT]	140.36	–	30.9 nM	–
RGYLPT [Analog G2, RGYLPT]	72095.45	–	15900 nM	–
RYGLPT [Analog G3, RYGLPT]	142868.18	–	31400 nM	–
RYLGPT [Analog G4, RYLGPT]	4954.55	–	1090 nM	–
RYLPGT [Analog G5, RYLPGT]	5259.09	–	1160 nM	–
RYLPTG [Analog G6, RYLPTG]	2175.00	–	478 nM	Activity at high concentrations compared with proctolin [1]: higher than that of proctolin
